# Source: patent US6284468A, “Composition and methods for determining the activity of DNA-binding proteins and of initiation of trascription” (Dnab Diagnostics, Inc., priority 2000, dated 2001)
# Tests used:
# [1] = target: T1, Escherichia coli RNA polymerase (Escherichia coli, UniProt P0A8V2); experiment: Inhibition of initiation of transcription (de-protection of BseRI site of plasmid pDNAB-tac, ethidium bromide fluorescence); assay type: biochemical
# T1 construct: purchased Pharmacia, Uppsala, Sweden
# Procedure: In order to measure the initiation of transcription RNA polymerase was added to 0.5 μg of pDNAB-tac plasmid following the same procedure described above for the measurement of DNA-binding activity. The 4 ribonucleotide triphosphates (ATP, CTP, GTP and UTP) were then added to the reaction mixture followed by BseRI and the amount of CCC DNA left was measured after 20 minutes using ethidium bromide fluorescence as in Example 1. In the presence of the 4 ribonucleotide triphosphates the RNA polymerase starts polymerizing an RNA molecule and it moves away from the promoter sequence, thereby de-protecting the BseRI cleavage site. Cleavage at this site can take place then.
# In order to measure the inhibition of the initiation of transcription, the effect of various concentrations of rifampicin on the de-protection of the BseRI site was measured. […] After 5 minutes of incubation, rifampicin and BseRI were added and the amount of uncleaved plasmid was measured after 20 minutes of incubation at 37° C. The 4 ribonucleotide triphosphates were then added and the amount of uncleaved plasmid was measured again after 20 more minutes of incubation at 37° C. […]
# The relative effects of rifampicin on transcription was quantitated using the formula [formula] […]
# [2] = target: T1, Escherichia coli RNA polymerase; experiment: Binding of RNA polymerase to the promoter sequence (protection of pDNAB-tac from BseRI cleavage, before addition of ribonucleotide triphosphates); details: various concentrations of rifampicin, FIG. 14
# Procedure: The following experiment was conducted to measure the DNA-binding activity of RNA polymerase to its cognate nucleotide recognition sequence. The incubation buffer contained 50 mM tris HCI (pH 8), 5 mM MgCl2, 100 mM potassium glutamate, and 3, μg of pDNABtac DNA in 60 μL final volume. One to 9 units of RNA polymerase (Boehringer-Mannheim, Mannheim, Germany) were added and, after preincubation at 37° C. for 5 minutes, the reaction was cooled to 31° C.
# In order to measure the inhibition of the initiation of transcription, the effect of various concentrations of rifampicin on the de-protection of the BseRI site was measured. Rifampicin is an antibiotic used in the therapy of bacterial infections (e.g. tuberculosis) and it specifically targets bacterial RNA polymerase, by inhibiting its transcription activity. […] After 5 minutes of incubation, rifampicin and BseRI were added and the amount of uncleaved plasmid was measured after 20 minutes of incubation at 37° C. The 4 ribonucleotide triphosphates were then added and the amount of uncleaved plasmid was measured again after 20 more minutes of incubation at 37° C.
# The white bars represent the fluorescence units (i.e. the amount of uncleaved plasmid) before the addition of the 4 ribonucleoside triphosphates, while the hatched bars represent the fluorescence units left after addition of the 4 ribonucleotide triphosphates.
compound,measurement,setting,value
CO[C@H]1/C=C/O[C@@]2(C)Oc3c(C)c(O)c4c(O)c(c(/C=N/N5CCN(C)CC5)c(O)c4c3C2=O)NC(=O)/C(C)=C\C=C\[C@H](C)[C@H](O)[C@@H](C)[C@@H](O)[C@@H](C)[C@H](OC(C)=O)[C@@H]1C [rifampicin],Ki,"[1]; Michaelis-Menten fit of % inhibition, rifampicin 0.2 μM to 3.2 μM, plasmid pDNAB-tac, 37° C., read-out: apparent Ki of rifampicin (inhibition of initiation of transcription activity)",2800 nM
same,inhibition of the transcription initiation activity,"[1]; various concentrations of rifampicin, with the 4 ribonucleotide triphosphates, FIG. 14",dose-dependent inhibition
same,inhibition of the binding of RNA polymerase to the promoter sequence,[2],not of the binding of RNA polymerase to the promoter sequence
